Test results published in US20240025906A1 (NEURON23, INC., priority 2022, published 2024).
Like-named read-outs stand apart in the source and are kept apart here.

Legend:
[1] = test system: JAK1/TYK2 pSTAT5 (Tyr694/699) in THP-1 cell line; experiment: IFNa-stimulated JAK1/TYK2 pSTAT5 (Tyr694/699) inhibition cellular assay, AlphaLISA; format: cell-based; details: Homo sapiens, THP-1 cells, AlphaLISA (Assay B)
Summary of the method: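 THP-1 cells (2e4/well in HBSS) were preincubated with compound (8 points, 6-fold steps from 10000 nM final) for 1 h at 37 °C, then stimulated with IFNa (added at 100 ng/mL) for 30 min. Lysate pSTAT5 was read by AlphaLISA at 615 nm. IC50 came from a 4-parameter fit with bottom 0 and Hill −1.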

TYK2 JH2 = biological target: T1, TYK2 JH2 (Homo sapiens, UniProt P29597); experiment: TYK2 JH2 binding assay (KINOMEscan KdELECT competitive binding); details: TYK2 JH2 domain
T1 construct: purchased DiscoverX (KINOMEscan KdELECT service); host or cells: E. coli BL21-derived (T7 phage display) or HEK-293
T1 sequence (P29597 589-875 limits assumed): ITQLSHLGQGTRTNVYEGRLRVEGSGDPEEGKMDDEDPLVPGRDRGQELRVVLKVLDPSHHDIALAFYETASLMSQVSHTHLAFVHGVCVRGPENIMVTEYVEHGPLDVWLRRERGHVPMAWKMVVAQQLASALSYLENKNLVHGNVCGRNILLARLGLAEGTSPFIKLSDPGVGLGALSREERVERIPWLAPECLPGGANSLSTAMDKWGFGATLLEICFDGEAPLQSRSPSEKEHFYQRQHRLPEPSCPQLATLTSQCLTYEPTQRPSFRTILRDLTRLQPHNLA
Summary of the method: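 Test compounds were titrated in 11 three-fold steps against JH2 fragment captured on ligand-loaded magnetic beads, with 1 h incubation at room temperature and DMSO at 0.9%. Eluted kinase was quantified by qPCR, and Kd was fitted from the dose series.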

[2] = IFNa-stimulated pSTAT5 (Tyr694/699), read-out: Cellular_THP1_IFNa-pSTATS_TYK2
[3] = KINOMEscan KdELECT (Assay A), read-out: Biochemical TYK2_DiscoverX_JH2_BND_Kd
[4] = IFNa-stimulated, read-out: Cellular_THP1_IFNa-pSTATS_TYK2
[5] = DiscoverX KINOMEscan KdELECT (Assay A), read-out: Biochemical TYK2_DiscoverX_JH2_BND_Kd
[6] = IFNa-stimulated, read-out: Cellular THP1_IFNa-pSTATS_IC50
[7] = KINOMEscan KdELECT (Assay A), read-out: Biochemical TYK2_JH2_Kd

SMILES	Kd (TYK2 JH2; [3])	IC50 [1, 4]	Kd (TYK2 JH2; [5])	also measured
CNc1ncc(-c2ccc(-n3cccn3)cc2)c2cc(NC(=O)C3CC3)ncc12 [Example 166, N-(5-(4-(1H-pyrazol-1-yl)phenyl)-8-(methylamino)-2,7-naphthyridin-3-yl)cyclopropanecarboxamide]	–	–	–	IC50 [1, 6]: > 500 nM; Kd (TYK2 JH2; [7]): ≤ 100 nM
C=C(C)c1cnc(NC)c2cnc(NC(=O)C3CC3)cc12 [Example 73, N-(8-(methylamino)-5-(prop-1-en-2-yl)-2,7-naphthyridin-3-yl)cyclopropanecarboxamide]	–	–	–	IC50 [1, 6]: > 500 nM; Kd (TYK2 JH2; [7]): ≤ 100 nM
CNc1ncc(-c2nc3cc(N4CCO[C@@H](C)C4)ccc3o2)c2cc(NC(=O)[C@H]3C[C@H]3C(C)(C)O)ncc12 (racemic) [Example 416, 2-(2-hydroxypropan-2-yl)-N-(8-(methylamino)-5-(5-((S)-2-methylmorpholino)benzo[d]oxazol-2-yl)-2,7-naphthyridin-3-yl)cyclopropane-1-carboxamide]	–	≤ 500 nM	≤ 100 nM	–
CNc1ncc(-c2nc3cc(N4CCOC[C@H]4C)ccc3o2)c2cc(NC(=O)C3CC3)ncc12 [Example 309, (R)-N-(8-(methylamino)-5-(5-(3-methylmorpholino)benzo[d]oxazol-2-yl)-2,7-naphthyridin-3-yl)cyclopropanecarboxamide]	–	≤ 500 nM	≤ 100 nM	–
CNc1ncc(-c2nc3cc(OC4CN(C(C)=O)C4)ccc3o2)c2cc(NC(=O)C3CC3)ncc12 [Example 230, N-(5-(5-((1-acetylazetidin-3-yl)oxy)benzo[d]oxazol-2-yl)-8-(methylamino)-2,7-naphthyridin-3-yl)cyclopropanecarboxamide]	–	≤ 500 nM	≤ 100 nM	–
CNc1ncc(C(C)C)c2cc(NC(=O)C3CC3)ncc12 [Example 74, N-(5-isopropyl-8-(methylamino)-2,7-naphthyridin-3-yl)cyclopropanecarboxamide]	–	–	–	IC50 [1, 6]: > 500 nM; Kd (TYK2 JH2; [7]): ≤ 100 nM
CNc1ncc(-c2nc3cc(OC)ccc3o2)c2cc(Nc3ccc(F)cn3)ncc12 [Example 374, N^6-(5-fluoropyridin-2-y1)-4-(5-methoxybenzo[d]oxazol-2-yl)-N^1-methyl-2,7-naphthyridine-1,6-diamine]	–	> 500 nM	≤ 100 nM	–
CNc1ncc(-c2nc3cc(OCF)ccc3o2)c2cc(NC(=O)C3CC3)ncc12 [Example 339, N-(5-(5-(fluoromethoxy)benzo[d]oxazol-2-yl)-8-(methylamino)-2,7-naphthyridin-3-yl)cyclopropanecarboxamide]	–	≤ 500 nM	≤ 100 nM	–
CNc1ncc(-c2nc3cc(N4CC(F)(F)C4)ccc3o2)c2cc(NC(=O)C3CC3)ncc12 [Example 279, N-(5-(5-(3,3-difluoroazetidin-1-yl)benzo[d]oxazol-2-yl)-8-(methylamino)-2,7-naphthyridin-3-yl)cyclopropanecarboxamide]	–	≤ 500 nM	≤ 100 nM	–

Continued, in another order:

Kd (TYK2 JH2; [3])	IC50 [1, 4]	Kd (TYK2 JH2; [5])	SMILES	also measured
≤ 100 nM	–	–	CCNC(=O)c1ccc2oc(-c3cnc(NC)c4cnc(NC(=O)C5CC5)cc34)nc2c1 [Example 1100, 2-(6-(cyclopropanecarboxamido)-1-(methylamino)-2,7-naphthyridin-4-yl)-N-ethylbenzo[d]oxazole-5-carboxamide]	IC50 [1, 2]: ≤ 500 nM
–	≤ 500 nM	≤ 100 nM	CC[C@@H]1C[C@H]1C(=O)Nc1cc2c(-c3nc4ccc(OC)cn4n3)cnc(NC)c2cn1 (single isomer, unassigned) [Example 522]	–
≤ 100 nM	≤ 500 nM	–	CNc1ncc(/C=C/c2ccc(O)cc2)c2cc(Nc3ccccn3)ncc12 [Example 795, (E)-4-(2-(1-(methylamino)-6-(pyridin-2-ylamino)-2,7-naphthyridin-4-yl)vinyl)phenol]	–
–	≤ 500 nM	≤ 100 nM	CNc1ncc(-c2nc3ccc(OC(F)(F)F)cn3n2)c2cc(NC(=O)C3CC3)ncc12 [Example 493A, N-(8-(methylamino)-5-(6-(trifluoromethoxy)-[1,2,4]triazolo[1,5-a]pyridin-2-yl)-2,7-naphthyridin-3-yl)cyclopropanecarboxamide]	–
≤ 100 nM	–	–	CCC(=O)Nc1ccc2oc(-c3cnc(NC)c4cnc(NC(=O)C5CC5)cc34)nc2c1 [Example 1092, N-(8-(methylamino)-5-(5-propionamidobenzo[d]oxazol-2-yl)-2,7-naphthyridin-3-yl)cyclopropanecarboxamide]	IC50 [1, 2]: ≤ 500 nM
≤ 100 nM	≤ 500 nM	–	CNc1ncc(C#Cc2ccc3nc(OC)n(C)c3c2)c2cc(NC(=O)C3CC3)ncc12 [Example 719, N-(5-((2-methoxy-1-methyl-1H-benzo[d]imidazol-6-yl)ethynyl)-8-(methylamino)-2,7-naphthyridin-3-yl)cyclopropanecarboxamide]	–
≤ 100 nM	≤ 500 nM	–	CNc1ncc(C#Cc2ccc(CC(F)(F)F)cn2)c2cc(NC(=O)C3CC3)ncc12 [Example 660, N-(8-(methylamino)-5-((5-(2,2,2-trifluoroethyl)pyridin-2-yl)ethynyl)-2,7-naphthyridin-3-yl)cyclopropanecarboxamide]	–
–	≤ 500 nM	≤ 100 nM	[2H]C([2H])([2H])Nc1ncc(-c2nc3ccc(C)cn3n2)c2cc(NC(=O)[C@@H]3C[C@@H]3F)ncc12 [Example 578, (1S,2S)-2-fluoro-N-(8-((methyl-d3)amino)-5-(6-methyl-[1,2,4]triazolo[1,5-a]pyridin-2-yl)-2,7-naphthyridin-3-yl)cyclopropane-1-carboxamide]	–
≤ 100 nM	≤ 500 nM	–	CNc1ncc(C#Cc2ccc(N3CC4CN(C)CC(C3)O4)cc2)c2cc(NC(=O)C3CC3)ncc12 [Example 734, N-(5-((4-(7-methyl-9-oxa-3,7-diazabicyclo[3.3.1]nonan-3-yl)phenyl)ethynyl)-8-(methylamino)-2,7-naphthyridin-3-yl)cyclopropanecarboxamide]	–
≤ 100 nM	≤ 500 nM	–	CNc1ncc(C#Cc2ccc3nc(C(C)(F)F)n(C)c3c2)c2cc(NC(=O)C3CC3)ncc12 [Example 773, N-(5-((2-(1,1-difluoroethyl)-1-methyl-1H-benzo[d]imidazol-6-yl)ethynyl)-8-(methylamino)-2,7-naphthyridin-3-yl)cyclopropanecarboxamide]	–
–	≤ 500 nM	≤ 100 nM	CNc1ncc(-c2nc3ccc(N4CCO[C@H](C)C4)cn3n2)c2cc(NC(=O)C3(F)CC3)ncc12 [Example 550, (R)-1-fluoro-N-(8-(methylamino)-5-(6-(2-methylmorpholino)-[1,2,4]triazolo[1,5-a]pyridin-2-yl)-2,7-naphthyridin-3-yl)cyclopropane-1-carboxamide]	–
–	≤ 500 nM	≤ 100 nM	CNc1ncc(-c2nc3ccccc3o2)c2cc(Nc3ccccn3)ncc12 [Example 427, 4-(benzo[d]oxazol-2-yl)-N^1-methyl-N^6-(pyridin-2-yl)-2,7-naphthyridine-1,6-diamine]	–
≤ 100 nM	≤ 500 nM	–	CNc1ncc(-c2cc3ccc(N4CCO[C@@H](C)C4)cn3n2)c2cc(NC(=O)[C@H]3C[C@H]3C)ncc12 [Example 798, (1S,2R)-2-methyl-N-(8-(methylamino)-5-(6-((S)-2-methylmorpholino)pyrazolo[1,5-a]pyridin-2-yl)-2,7-naphthyridin-3-yl)cyclopropane-1-carboxamide]	–
–	≤ 500 nM	≤ 100 nM	CNc1ncc(-c2nc3cc(N4CCOCC4)ccc3o2)c2cc(NC(=O)[C@H]3C[C@H]3CF)ncc12 (single isomer, unassigned) [Example 451]	–
